Measured values from patent US9873693B2 (Sunesis Pharmaceuticals, Inc., priority 2006, dated 2018).
Read-outs that look alike come from different tables or passages of the source.

How the values were obtained:
phosphorylated PDK1 = phosphorylated PDK1 (Homo sapiens (Human), UniProt O15530); experiment: PDK1 kinase assay (coupled PDK1/AKT/FAM-crosstide, IMAP); type: biochemical; conditions: 0.5 nM phosphorylated PDK1, 24 μM ATP; read-out: Inhibition of phospo-PDK1 in vitro IC50
phospho-akt (Thr308) = phospho-akt (Thr308) MSD ELISA in PC-3 cells; type: cell-based; conditions: Homo sapiens; for EC50: PC-3, 2 h; for inhibition at 1 µM / inhibition at 10 µM: read-out: Percent Inhibition of phospho-Akt (308) By MSD ELISA
Description: PC-3 cells were harvested by trypsin and counted. Cells were plated in coated 96-well flat bottom plates (plate 15,000 cells/well in 100 ul growth media (10% FBS, 1× pen-strep) an place in an incubator overnight.
Subject inhibitors were stocked at 50 mM, then diluted to 30 mM (4.8 μl cpd plus […] DMSO) in 100% DMSO. Three-fold dilutions were performed from 30 mM stock. (4 μl into 8 ul 100% DMSO). Aliquots of 1.0 μl of inhibitor solution were transferred into SF Medium (using deep well block).
Control wells were prepared as follows. For DMSO high controls, 1.0 μl of 100% DMSO was added into 1.0 ml SF.
MSD plates were blocked for 1 hour by adding 150 μl of Blocking Solution (3% BSA) to each well. The MSD plates were washed 4× with TBST, and 50 μl lysates were transferred to MSD plate and place on plate shaker shake at 4 degrees O/N, light shaking (speed 3.5). The plate was washed 4× with TBST.
25 μl of Ab detection solution was added to each well. The plate was sealed and incubated 1 hr RT, light shaking (speed 3.5). The plate was washed 4 times with TBST. 150 μl of Read Buffer was added (5 mls 4×MSD Read Buffer+15 mls water). Finally the plate was read immediately on the MSD plate reader.

[1] = PC-3 cells, 2 hours, no serum, read-out: Inhibition of P308 Akt in cells using MSD EC50
[2] = read-out: Inhibition of P308 Akt in cells using MSD EC50
[3] = PC-3 cells, 2 hours, no serum, read-out: Reduction of Cellular Levels of Akt p308 By MSD ELISA (EC50 μM)

Chain of phosphorylated PDK1 (O15530 51-360): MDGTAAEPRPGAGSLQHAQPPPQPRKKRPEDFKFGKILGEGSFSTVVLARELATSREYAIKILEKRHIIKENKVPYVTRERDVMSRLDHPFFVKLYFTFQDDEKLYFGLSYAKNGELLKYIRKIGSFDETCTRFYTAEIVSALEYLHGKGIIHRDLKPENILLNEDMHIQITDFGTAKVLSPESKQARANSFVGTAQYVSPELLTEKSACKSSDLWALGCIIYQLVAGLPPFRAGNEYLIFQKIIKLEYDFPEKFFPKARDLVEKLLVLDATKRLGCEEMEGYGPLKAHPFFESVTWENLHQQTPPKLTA

Row | Compound | IC50 (phosphorylated PDK1) [nM] | EC50 (phospho-akt (Thr308); [1]) [µM] | EC50 (phospho-akt (Thr308); [3]) [µM] | other results
1 | O=C(N[C@@H](COc1ccc2[nH]c(=O)[nH]c2c1)c1cccs1)c1cccn(Cc2ccc(F)c(F)c2)c1=O [Cpd 192] | < 500 | < 1 |  | 
2 | O=C(NCc1noc(-c2c[nH]c3ncccc23)n1)c1cc([N+](=O)[O-])cn(Cc2cc(F)c(F)c(F)c2)c1=O [Cpd 184] | < 500 | 1 to 5 |  | 
3 | N#Cc1cc(-c2c[nH]c3ncccc23)cc(CNC(=O)c2cccn(Cc3ccc(F)c(F)c3)c2=O)n1 [Cpd 191] | < 500 |  |  | EC50 (phospho-akt (Thr308); [2]): < 1 µM
4 | O=C(N[C@H](CO)c1nnc(-c2c[nH]c3ncccc23)o1)c1cccn(Cc2ccc(F)c(F)c2)c1=O [Cpd 284] | < 500 | 1 to 5 | 1 to 5 | 
5 | C[C@@H](c1ccc(Cl)cc1)n1cc(Cl)cc(C(=O)NCc2noc(-c3c[nH]c4ncccc34)n2)c1=O [Cpd 315] | < 500 | < 1 |  | inhibition at 1 µM (phospho-akt (Thr308); PC-3 cells): 25 to 75%; inhibition at 10 µM (phospho-akt (Thr308); PC-3 cells): > 75%
6 | O=C1Nc2cc(/C=C/CNC(=O)c3cccn(Cc4cc(F)c(F)c(F)c4)c3=O)ccc2/C1=C\c1nccs1 [Cpd 202] | < 500 | 1 to 5 |  | 
7 | O=C(NC/C=C/c1ccc2[nH]c(=O)[nH]c2c1)c1cccn(Cc2ccc(F)c(F)c2)c1=O [Cpd 160] | < 500 | > 5 |  | 
8 | COC(=O)[C@H](COc1ccc2[nH]c(=O)[nH]c2c1)NC(=O)c1cccn(Cc2cc(F)c(F)c(F)c2)c1=O [Cpd 153] | < 500 | < 1 |  | 
9 | O=C(O)c1cnc2[nH]cc(-c3cccc(CNC(=O)c4cccn(Cc5ccc(F)c(F)c5)c4=O)c3)c2c1 [Cpd 20] | < 500 |  | > 5 | 
10 | O=C(NCc1ccc(-c2ccc3cn[nH]c3c2)s1)c1cccn(Cc2ccc(F)c(F)c2)c1=O [Cpd 59] | < 500 | 1 to 5 |  | 
11 | NC(=O)c1cnc2[nH]cc(-c3ccc(CNC(=O)c4cccn(Cc5ccc(F)c(F)c5)c4=O)s3)c2c1 [Cpd 39] | < 500 | < 1 | < 1 | 
12 | O=C1Nc2cc(/C=C/CNC(=O)c3cccn(Cc4cc(F)c(F)c(F)c4)c3=O)ccc2/C1=C\c1cccnc1 [Cpd 194] | < 500 | < 1 |  | 
13 | O=C(NC(C(=O)O)c1ccc(-c2c[nH]c3ncccc23)s1)c1cccn(Cc2ccc(F)c(F)c2)c1=O (stereo not shown) [Cpd 335] | 500 to 10000 |  | > 5 | 
14 | CN(C)CCOc1cc(CNC(=O)c2cccn(Cc3ccc(F)c(F)c3)c2=O)cc(-c2c[nH]c3ncccc23)c1 [Cpd 60] | < 500 | 1 to 5 |  | 
15 | O=C(NCc1cccc(-c2c[nH]c3ncccc23)c1)c1cccn(Cc2ccc(F)c(F)c2)c1=O [Cpd 126] | < 500 | 1 to 5 | < 1 | 
16 | O=C(NCc1cc(-c2c[nH]c3ncccc23)ccc1F)c1cccn(Cc2ccc(F)c(F)c2)c1=O [Cpd 278] | < 500 |  |  | inhibition at 1 µM (phospho-akt (Thr308); PC-3 cells): < 25%; inhibition at 10 µM (phospho-akt (Thr308); PC-3 cells): 25 to 75%
17 | CCNC(=O)c1cnc2[nH]cc(-c3ccc(CNC(=O)c4cccn(Cc5ccc(F)c(F)c5)c4=O)s3)c2c1 [Cpd 41] | < 500 | < 1 | < 1 | 
18 | O=C(NC(COc1ccc2[nH]c(=O)[nH]c2c1)c1ccc(F)cc1)c1cccn(Cc2ccc(F)c(F)c2)c1=O (stereo not shown) [Cpd 147] | < 500 | < 1 | < 1 | 
19 | O=C(NCc1cccc(-c2c[nH]c3ncc(Cl)cc23)c1)c1cccn(Cc2ccc(F)c(F)c2)c1=O [Cpd 22] | < 500 | 1 to 5 | 1 to 5 | 
20 | O=C(N[C@@H](COc1ccc2[nH]c(=O)[nH]c2c1F)c1ccccc1)c1cccn(Cc2cc(F)c(F)c(F)c2)c1=O [Cpd 177] | < 500 | < 1 |  | 
21 | O=C(N[C@@H](COc1ccc2[nH]c(=O)[nH]c2c1)c1ccccc1)c1cccn(Cc2cc(F)c(F)c(F)c2)c1=O [Cpd 174] | < 500 |  |  | EC50 (phospho-akt (Thr308); [2]): 1 to 5 µM
22 | CC(C)=C1C(=O)Nc2cc(/C=C/CNC(=O)c3cccn(Cc4cc(F)c(F)c(F)c4)c3=O)ccc21 [Cpd 204] | < 500 | 1 to 5 |  | 
23 | O=C(NCc1cccc(-c2c[nH]c3ncc(-c4ccsc4)cc23)c1)c1cccn(Cc2ccc(F)c(F)c2)c1=O [Cpd 331] | < 500 | 1 to 5 |  | 
24 | COCCNC(=O)C[C@@H](NC(=O)c1cccn(Cc2ccc(F)c(F)c2)c1=O)c1ccc(-c2c[nH]c3ncccc23)s1 [Cpd 34] | < 500 | 1 to 5 | 1 to 5 | 
25 | O=C1Nc2cc(/C=C/CNC(=O)c3cc(Cl)cn(Cc4cc(F)c(F)c(F)c4)c3=O)ccc2/C1=C/c1ncc[nH]1 [Cpd 197] | < 500 | < 1 |  | 

Row | Compound | IC50 (phosphorylated PDK1) [nM] | EC50 (phospho-akt (Thr308); [1]) [µM] | EC50 (phospho-akt (Thr308); [3]) [µM] | other results
26 | O=C(NCc1cccc(-c2c[nH]c3nccnc23)c1)c1cccn(Cc2ccc(F)c(F)c2)c1=O [Cpd 13] | < 500 | 1 to 5 |  | inhibition at 1 µM (phospho-akt (Thr308); PC-3 cells): 25 to 75%; inhibition at 10 µM (phospho-akt (Thr308); PC-3 cells): > 75%
27 | O=C1Nc2cc(/C=C/CNC(=O)c3cccn(Cc4cc(F)c(F)c(F)c4)c3=O)ccc2/C1=C/c1cnc[nH]1 [Cpd 212] | < 500 | 1 to 5 |  | 
28 | O=C1Nc2cc(/C=C/CNC(=O)c3cccn(Cc4ccc(F)c(F)c4)c3=O)ccc2/C1=C/c1ncc[nH]1 [Cpd 199] | < 500 | < 1 |  | 
29 | CCCNC(=O)c1cnc2[nH]cc(-c3cccc(CNC(=O)c4cccn(Cc5ccc(F)c(F)c5)c4=O)c3)c2c1 [Cpd 29] | < 500 | < 1 | < 1 | 
30 | CN(C)C(=O)c1cnc2[nH]cc(-c3cccc(CNC(=O)c4cccn(Cc5ccc(F)c(F)c5)c4=O)c3)c2c1 [Cpd 27] | < 500 | < 1 | < 1 | 
31 | O=C(NCc1ccnc(-c2c[nH]c3ncccc23)c1)c1cccn(Cc2ccc(F)c(F)c2)c1=O [Cpd 285] | < 500 | 1 to 5 | 1 to 5 | 
32 | O=C(NCc1cc(OCCN2CCOCC2)cc(-c2c[nH]c3ncccc23)c1)c1cccn(Cc2ccc(F)c(F)c2)c1=O [Cpd 56] | < 500 | 1 to 5 |  | 
33 | CNC(=O)c1cnc2[nH]cc(-c3cccc(CNC(=O)c4cccn(Cc5ccc(F)c(F)c5)c4=O)c3)c2c1 [Cpd 239] | < 500 | 1 to 5 | < 1 | 
34 | O=C(NCc1cc(-c2c[nH]c3ncccc23)c[n+]([O-])c1)c1cccn(Cc2ccc(F)c(F)c2)c1=O [Cpd 165] | < 500 | > 5 |  | 
35 | O=C(NCc1cc(O)cc(-c2c[nH]c3ncccc23)c1)c1cccn(Cc2ccc(F)c(F)c2)c1=O [Cpd 49] | < 500 | 1 to 5 |  | 
36 | CCNC(=O)C[C@@H](NC(=O)c1cccn(Cc2ccc(F)c(F)c2)c1=O)c1ccc(-c2c[nH]c3ncccc23)s1 [Cpd 31] | < 500 | 1 to 5 | 1 to 5 | 
37 | C[Si](C)(C)CCOCn1nc(NC(=O)c2cccn(Cc3ccc(F)c(F)c3)c2=O)c2cc(-c3c[nH]c4ncccc34)ccc21 [Cpd 36] | < 500 |  |  | EC50 (phospho-akt (Thr308); [2]): > 5 µM; EC50 (phospho-akt (Thr308); read-out: Reduction of Cellular Levels of Akt p308 By MSD ELISA (EC50 μM)): > 5 µM
38 | N#Cc1cnc2[nH]cc(-c3cccc(CNC(=O)c4cccn(Cc5ccc(F)c(F)c5)c4=O)c3)c2c1 [Cpd 244] | < 500 | < 1 | < 1 | 
39 | CNC(=O)c1cnc2[nH]cc(-c3ccc(CNC(=O)c4cccn(Cc5ccc(F)c(F)c5)c4=O)s3)c2c1 [Cpd 40] | < 500 | 1 to 5 | 1 to 5 | 
40 | Cn1ccnc1/C=C1/C(=O)Nc2cc(/C=C/CNC(=O)c3cccn(Cc4cc(F)c(F)c(F)c4)c3=O)ccc21 [Cpd 210] | < 500 |  |  | 
41 | NS(=O)(=O)c1ccccc1-c1cccc(CNC(=O)c2cccn(Cc3ccc(F)c(F)c3)c2=O)c1 [Cpd 226] | > 10000 |  |  | 
42 | O=C(NCc1cccc(-c2c[nH]c3ncc(-c4nnn[nH]4)cc23)c1)c1cccn(Cc2ccc(F)c(F)c2)c1=O [Cpd 246] | < 500 |  |  | 
43 | O=C(NCC12CC3CC(C1)CC(c1c[nH]c4ncccc14)(C3)C2)c1cccn(Cc2ccc(F)c(F)c2)c1=O [Cpd 327] | 500 to 10000 |  |  | 
44 | O=C1Cc2ccc(OCCNC(=O)c3cccn(Cc4cc(F)c(F)c(F)c4)c3=O)cc2N1 [Cpd 207] | < 500 |  |  | 
45 | Nc1ncc(-c2cccc(CNC(=O)c3cccn(Cc4ccc(F)c(F)c4)c3=O)c2)cn1 [Cpd 215] | > 10000 |  |  | 
46 | COc1ccnc(NCCCCCNC(=O)c2cccn(Cc3ccc(Cl)c(Cl)c3)c2=O)n1 [Cpd 251] | 500 to 10000 |  |  | 
47 | O=C(N[C@H]1CC[C@H](c2c[nH]c3ncccc32)CC1)c1cccn(Cc2ccc(F)c(F)c2)c1=O [Cpd 337] | > 10000 |  |  | 
48 | O=C(NCCCc1ccc2[nH]c(=O)[nH]c2c1)c1cccn(Cc2ccc(F)c(F)c2)c1=O [Cpd 161] | < 500 |  |  | 
49 | O=C(Nc1cccc(C(=O)n2ccc3ncccc32)c1)c1cccn(Cc2ccc(F)c(F)c2)c1=O [Cpd 229] | > 10000 |  |  | 
50 | O=C(NCCCCCCc1c[nH]c2ncccc12)c1cccn(Cc2ccc(F)c(F)c2)c1=O [Cpd 338] | < 500 |  |  | 
